Test results as given in US11851710B2, “Methods and materials for identifying metastatic malignant skin lesions and treating skin cancer” (Mayo Foundation for Medical Education and Research, priority 2014, dated 2023).
Values joined by “and” are separate entries in the source; they are usually repeats but may differ in a detail not shown here. Equal values may be shown once. Read-outs that look alike come from different tables or passages of the source.

Tests used:
[1] = rats, 10 mg/kg i.m. daily; cited from earlier work
[2] = tested on: t-PA (PLAT); test: Expression of t-PA (PLAT) in melanoma cells; assay type: cell-based; settings: FIG. 15E
From the text: (§1) FIGS. 15A-15J illustrate that pentamidine inhibits SPP1 expression, proliferation, and invasion of melanoma cells. […] FIGS. 15B-15D illustrate that pentamidine inhibits SPP1 promoter activity in the DUAL-GLO® assay (FIG. 15B), but also by quantitative PCR in normal WM858 (FIG. 15C) and M12 cells (FIG. 15D). […] FIG. 15I is a chart illustrating that pentamidine injections reduce SPP1, ([…], and t-PA (PLAT) mRNA expression in M12 PDX. Average of three mice is shown. PENTA, Pentamidine; DABRA, Dabrafenib. WM858 and M12 are B-rafV600E metastatic melanoma cells.
(§2) Pentamidine inhibited SPP1 mRNA in both WM858 (FIG. 15C) and M12 cells (FIG. 15D). […] Next, a red-fluorescent nuclear protein was stably expressed in M12 cells to automatically count nuclei over time (using the IncuCyte ZOOM system, Essen Bioscience), a surrogate measure of cell proliferation. Pentamidine reduced M12 proliferation with an ED50 of 40 μM.

[3] = Tolerability of i.m. Pentamidine in nude mice with intradermal M12 xenografts; assay type: in vivo; settings: six consecutive days, female nude mice
Procedure: (§3) To determine whether Pentamidine reduces SPP1 expression in vivo, M12 cells were injected intradermally into female nude mice and left to grow until xenograft tumors formed (FIGS. 15H and 15I). Then, four different doses of Pentamidine were injected intramuscularly (i.m.) into groups of three mice for six consecutive days. It was previously shown that serum concentration in patients injected with 4 mg/kg Pentamidine i.m. daily (FDA labeling) range from 0.2-1.4 μg/mL (0.3-2.4 μM). In rats, slightly lower levels can be achieved using 10 mg/kg i.m. daily (0.1-0.4 μg/mL) (Bernard et al., J. Inf. Dis. 152:750-754 (1985) and Waalkes et al., Clin. Pharma. Therap. 11:505-512 (1969)). In the current study, at the highest Pentamidine dose (80 mg/kg/daily), all mice died. Mice survived at 40 mg/kg/day, but appeared sick. […] Tumors were subsequently harvested, lysed, and analyzed by quantitative PCR. All doses of Pentamidine led to a reduction of SPP1, β3 integrin, and t-PA (PLAT) mRNA expression in tumor tissue (FIG. 15J).

[4] = in vitro; assay type: cell-based; settings: human
Procedure: as §2

[5] = tested on: SPP1 mRNA; test: SPP1 mRNA by quantitative PCR in M12 cells; assay type: cell-based, human
From the text: as §1, §2

[6] = tested on: β3 integrin (ITGB3); test: Expression of β3 integrin (ITGB3) in melanoma cells; assay type: cell-based; settings: FIG. 15E
From the text: as §1, §2

[7] = tested on: t-PA (PLAT) mRNA; test: t-PA (PLAT) mRNA in M12 xenograft tumor tissue by quantitative PCR; assay type: in vivo, mice; settings: all doses i.m. for six days
From the text: as §1
as §3, with “(1969)).” for “(1969)). In the current study, at the highest Pentamidine dose (80 mg/kg/daily), all mice died. Mice survived at 40 mg/kg/day, but appeared sick.”, “All doses of Pentamidine led to a reduction of SPP1, β3 integrin, and t-PA (PLAT) mRNA expression in tumor tissue (FIG. 15J).” left out

[8] = tested on: M12 cells; test: M12 proliferation, automated count of red-fluorescent nuclei (IncuCyte ZOOM); assay type: cell-based; settings: Homo sapiens, nuclei counted over time, read-out: M12 proliferation ED50
Procedure: Automated quantification of cell proliferation was by the INCUCYTE™ kinetic imaging system (Essen Bioscience). Approximately 2,000 cells were seeded into a 96-well cell culture dish, eight replicates per condition over the indicated time. Data analysis was with the INCUCYTE ZOOM software package.
as §2

[9] = tested on: SPP1 mRNA; test: SPP1 mRNA by quantitative PCR in WM858 cells; assay type: cell-based
From the text: as §1, §2

[10] = tested on: β3 integrin mRNA; test: β3 integrin mRNA in M12 xenograft tumor tissue by quantitative PCR; assay type: in vivo, mice; settings: all doses i.m. for six days
From the text: as §1
as §3, with “(1969)).” for “(1969)). In the current study, at the highest Pentamidine dose (80 mg/kg/daily), all mice died. Mice survived at 40 mg/kg/day, but appeared sick.”, “All doses of Pentamidine led to a reduction of SPP1, β3 integrin, and t-PA (PLAT) mRNA expression in tumor tissue (FIG. 15J).” left out

[11] = in vitro; assay type: cell-based; settings: human; remark: listed apart in the source
Procedure: as §2

[12] = tested on: SPP1 promoter; test: SPP1 promoter dual luciferase (DUAL-GLO) screen of LOPAC library in WM858 cells; assay type: cell-based; settings: WM858 cells with luciferase-tagged SPP1 promoter
From the text: FIG. 14 depict the luciferase construct for high-throughput screening. Genomic structure of the SPP1 gene is shown as well as a targeting approach. A DNA double-strand break was induced in exon (E) 2 of SPP1, 3′ of the ATG start codon by a custom-made zinc finger nuclease (ZFN), arrow. A targeting vector with 500 bp homology arms (HA, middle), Hygromycin resistance (HYGRO), a target promoter-driven firefly luciferase (LUC2P), and a CMV-pomoter driven renilla luciferase (HRLUC) was offered for repair at the time of the double-strand break. PA, PA terminator signal. Blue boxes, untranslated region; black boxes, translated region.
Osteopontin (SPP1) is a proto-typical cancer-associated extracellular matrix gene and ligand of αv and α5β1 integrins. SPP1 is highly overexpressed in melanoma (Talantov et al., Clin. Cancer Res. 11:7234-42 (2005)) and its upregulation correlates with metastasis risk (Conway et al., Clin. Cancer Res. 15:6939-6946 (2009) and Mitra et al., Br. J. Cancer 103:1229-1236 (2010)). To rapidly screen chemical compounds for their ability to inhibit SPP1 expression in vitro, the endogenous SPP1 promoter of WM858 melanoma cells was tagged with a dual luciferase system using zinc finger nucleases. The SPP1-promoter drives firefly luciferase tagged with a protein degradation sequence (hPEST). A CMV-promoter driven renilla luciferase was used as a loading control (FIG. 14). […]

[13] = tested on: M12 cells; test: M12 invasion into Matrigel-embedded scratch wounds; assay type: cell-based, human; settings: 2 mg/mL Matrigel, compared with Dabrafenib
From the text: as §1, §2

[14] = patients, 4 mg/kg i.m. daily (FDA labeling); cited from earlier work
[15] = tested on: SPP1 mRNA; test: SPP1 mRNA in M12 xenograft tumor tissue by quantitative PCR; assay type: in vivo, mice; settings: all doses i.m. for six days
From the text: as §1
as §3, with “(1969)).” for “(1969)). In the current study, at the highest Pentamidine dose (80 mg/kg/daily), all mice died. Mice survived at 40 mg/kg/day, but appeared sick.”, “All doses of Pentamidine led to a reduction of SPP1, β3 integrin, and t-PA (PLAT) mRNA expression in tumor tissue (FIG. 15J).” left out

## N=C(N)c1ccc(OCCCCCOc2ccc(C(=N)N)cc2)cc1 [Pentamidine, 4,4′-[pentane-1,5-diylbis(oxy)]dibenzenecarboximidamide]
[1]
  serum concentration: 100 to 400 ng/mL
[2]
  expression of t-PA (PLAT): reduced
[3]; 40 mg/kg/day i.m.
  survival / tolerability of mice: appeared sick
[3]; 80 mg/kg/daily i.m.
  survival / tolerability of mice: all mice died
[3]; other two doses, specifically 8 mg/kg/day i.m.
  survival / tolerability of mice: well tolerated
[4]
  EC50: > 100 µM
[5]
  SPP1 mRNA: inhibited
[6]
  expression of β integrin: reduced
[7]
  t-PA (PLAT) mRNA expression in tumor tissue: reduction
[8]
  EC50: 40 µM
[9]
  SPP1 mRNA: inhibited
[10]
  β3 integrin mRNA expression in tumor tissue: reduction
[11]
  EC50: > 100 µM
[12]
  Normalized ratio: firefly signal normalized to renilla signal, then to DMSO-treated control wells: < 0.25
[13]
  Matrigel invasion: more effectively than Dabrafenib
[14]
  serum concentration: 0.2-1.4 μg/mL and 0.3-2.4 μM
[15]
  SPP1 mRNA expression in tumor tissue: reduction
